Assay results reported in patent publication US12440496B2, “Natriuretic peptide receptor a agonists useful for the treatment of cardiometabolic diseases, kidney disease and diabetes” (Merck Sharp & Dohme LLC, priority 2019, dated 2025).
Structures can show the parent of a compound that is named as a salt.

Target: T1, hNPRA (Homo sapiens, UniProt P16066)
T1 construct: expressed in transfected cells
T1 sequence (P16066 33-1061): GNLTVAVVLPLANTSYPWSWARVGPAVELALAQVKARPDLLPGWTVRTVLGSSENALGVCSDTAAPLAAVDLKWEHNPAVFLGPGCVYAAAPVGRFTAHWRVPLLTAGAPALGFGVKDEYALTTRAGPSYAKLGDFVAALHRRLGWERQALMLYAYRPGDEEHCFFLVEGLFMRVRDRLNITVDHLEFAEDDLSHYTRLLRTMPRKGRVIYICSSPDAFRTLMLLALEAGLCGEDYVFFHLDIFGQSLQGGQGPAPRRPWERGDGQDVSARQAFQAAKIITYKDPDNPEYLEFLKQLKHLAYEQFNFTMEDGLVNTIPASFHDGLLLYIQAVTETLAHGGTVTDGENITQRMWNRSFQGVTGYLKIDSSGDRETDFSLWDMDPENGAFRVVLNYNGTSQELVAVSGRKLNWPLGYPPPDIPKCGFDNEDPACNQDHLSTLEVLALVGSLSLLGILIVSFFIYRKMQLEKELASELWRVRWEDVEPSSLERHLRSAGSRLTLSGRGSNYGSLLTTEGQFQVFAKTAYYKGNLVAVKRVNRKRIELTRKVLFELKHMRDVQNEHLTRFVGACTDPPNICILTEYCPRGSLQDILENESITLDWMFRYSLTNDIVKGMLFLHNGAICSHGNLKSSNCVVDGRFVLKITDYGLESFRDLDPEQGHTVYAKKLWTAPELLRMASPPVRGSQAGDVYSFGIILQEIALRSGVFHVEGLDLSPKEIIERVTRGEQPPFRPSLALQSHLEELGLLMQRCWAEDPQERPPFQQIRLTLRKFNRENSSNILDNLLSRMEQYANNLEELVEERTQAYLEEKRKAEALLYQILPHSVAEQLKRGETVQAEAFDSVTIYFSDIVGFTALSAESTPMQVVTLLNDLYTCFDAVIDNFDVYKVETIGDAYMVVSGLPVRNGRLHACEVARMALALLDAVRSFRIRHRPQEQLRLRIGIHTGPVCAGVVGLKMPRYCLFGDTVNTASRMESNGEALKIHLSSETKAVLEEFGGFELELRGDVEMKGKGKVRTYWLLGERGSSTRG
Assay: NPRA Functional Cell Assay (cGMP HTRF, NPRA HEK JumpIn stable cells)
Type: cell-based
Settings: cGMP production, 1 hour at 37° C., 10-point dose response
Outline: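 cGMP HTRF read-out after 1 hour compound treatment at 37° C. of human NPRA-expressing HEK JumpIn cells, 1500 cells/well, in buffer with phosphodiesterase inhibitors IBMX and RO20 (100 uM each). Signal converted to [cGMP] by calibration curve; EC50s fitted by 4-parameter logistic; 50 nM h-ANP as positive response.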

| Structure (SMILES) | EC50 |
| --- | --- |
| CC(C)(C)[C@H]1CCc2nc3sc(C(=O)N[C@H](CCN4CCCCC4)c4ccc(-c5ccc(O)nc5)cc4)cc3cc2C1 (racemic) [Example 32, rac-(6S)-6-tert-butyl-N-[rac-(1R)-1-[4-(6-oxo-1H-pyridin-3-yl)phenyl]-3-piperidin-1-ium-1-yl-propyl]-5,6,7,8-tetrahydrothieno[2,3-b]quinoline-2-carboxamide;formate] | 0.478 µM |
| CC(C)(C)[C@H]1CCc2nc3sc(C(=O)N[C@H](CCN4CCC(O)CC4)c4ccc(-c5c[nH]nc5C(F)(F)F)cc4)nc3cc2C1 (racemic) [Example 167, rac-(7S)-7-tert-butyl-N-[rac-(1R)-3-(4-hydroxypiperidin-1-ium-1-yl)-1-[4-[3-(trifluoromethyl)-1H-pyrazol-4-yl]phenyl]propyl]-5,6,7,8-tetrahydrothiazolo[5,4-b]quinoline-2-carboxamide; 2,2,2-trifluoroacetate] | 0.666 µM |
| CN(C)S(=O)(=O)Nc1ccc([C@@H](CCN2CCC(O)CC2)NC(=O)c2nc3cc4c(nc3s2)CC[C@H](C(C)(C)C)C4)cc1F [Example 226, (S)-7-(tert-butyl)-N-((R)-1-(4-((N,N-dimethylsulfamoyl)amino)-3-fluorophenyl)-3-(4-hydroxypiperidin-1-yl)propyl)-5,6,7,8-tetrahydrothiazolo[5,4-b]quinoline-2-carboxamide] | 0.677 µM |
| CC(C)(C)[C@H]1CCc2nc3sc(C(=O)N[C@H](CCN4CCC(n5cnnc5)CC4)c4ccc(-c5ccc(=O)[nH]c5)cc4)cc3cc2C1 (racemic) [Example 29, rac-(6S)-6-tert-butyl-N-[rac-(1R)-1-[4-(6-oxo-1H-pyridin-3-yl)phenyl]-3-[4-(1,2,4-triazol-4-yl)piperidin-1-ium-1-yl]propyl]-5,6,7,8-tetrahydrothieno[2,3-b]quinoline-2-carboxamide;formate] | 0.448 µM |
| CC1(O)CN(CC[C@@H](NC(=O)c2cc3cc4c(nc3s2)CC[C@H](C(C)(C)C)C4)c2cccc(NS(C)(=O)=O)c2)C1 (racemic) [Example 16, ammonium; methylsulfonyl-[3-[rac-(1R)-3-(3-hydroxy-3-methyl-azetidin-1-yl)-1-[[rac-(6S)-6-tert-butyl-5,6,7,8-tetrahydrothieno[2,3-b]quinoline-2-carbonyl]amino]propyl]phenyl] azanide] | 1.12 µM |
| CC(C)(C)[C@H]1CCc2nc3sc(C(=O)N[C@H](CCN4CCC(F)CC4)c4ccc(-c5ccc(=O)[nH]c5)cc4)cc3cc2C1 (racemic) [Example 59, rac-(6S)-6-tert-butyl-N-[rac-(1R)-3-(4-fluoropiperidin-1-ium-1-yl)-1-[4-(6-oxo-1H-pyridin-3-yl)phenyl]propyl]-5,6,7,8-tetrahydrothieno[2,3-b]quinoline-2-carboxamide;formate] | 1.01 µM |
| CC(C)(C)[C@H]1CCc2nc3sc(C(=O)N[C@H](CCN4CCC(C(=O)O)CC4)c4ccc(-c5ccc(=O)[nH]c5)cc4)cc3cc2C1 (racemic) [Example 44, 1-[rac-(3R)-3-[4-(6-oxo-1H-pyridin-3-yl)phenyl]-3-[rac-(6S)-6-tert-butyl-5,6,7,8-tetrahydrothieno[2,3-b]quinoline-2-carbonyl]amino]propyl] piperidin-1-ium-4-carboxylic acid;formate] | 0.665 µM |
| CC(C)(C)[C@H]1CCc2nc3sc(C(=O)N[C@H](CCN4CCC[C@H](O)[C@H]4CO)c4ccc(-c5ccc(=O)[nH]c5)cc4)cc3cc2C1 (racemic) [Example 31, rac-(6S)-6-tert-butyl-N-[rac-(1R)-1-[4-(6-oxo-1H-pyridin-3-yl)phenyl]-3-[rac-(2R,3S)-3-hydroxy-2-(hydroxymethyl)piperidin-1-ium-1-yl]propyl]-5,6,7,8-tetrahydrothieno[2,3-b]quinoline-2-carboxamide; formate] | 0.473 µM |
| CC(C)(C)[C@H]1CCc2nc3sc(C(=O)N[C@H](CCN4CCC(O)CC4)c4ccc(-c5ncc(O)cc5F)cc4)nc3cc2C1 (racemic) [Example 181, rac-(7S)-7-tert-butyl-N-[rac-(1R)-1-[4-(3-fluoro-5-hydroxy-2-pyridyl)phenyl]-3-(4-hydroxypiperidin-1-ium-1-yl)propyl]-5,6,7,8-tetrahydrothiazolo[5,4-b]quinoline-2-carboxamide; 2,2,2-trifluoroacetate] | 1.44 µM |
| CC(C)(C)[C@H]1CCc2nc3sc(C(=O)N[C@H](CCN4CCC(O)CC4)c4ccc(OCCO)nc4)nc3cc2C1 (racemic) [Example 192, rac-(7S)-7-tert-butyl-N-[rac-(1R)-1-[6-(2-hydroxyethoxy)-3-pyridyl]-3-(4-hydroxy-1-piperidyl)propyl]-5,6,7,8-tetrahydrothiazolo[5,4-b]quinoline-2-carboxamide] | 0.665 µM |
| CN1CC(NC(=O)c2cccc([C@@H](CCN3CCC(c4ccc(C(=O)O)cc4)CC3)NC(=O)c3nc4cc5c(nc4s3)CC[C@H](C(C)(C)C)C5)c2)C1 (racemic) [Example 105, 4-[1-[rac-(3R)-3-[3-[(1-methylazetidin-1-ium-3-yl)carbamoyl]phenyl]-3-[rac-(7S)-7-tert-butyl-5,6,7,8-tetrahydrothiazolo [5,4-b]quinoline-2-carbonyl]amino]propyl]-4-piperidyl]benzoic acid; 2,2,2-trifluoroacetate] | 0.315 µM |

Now those with a lower EC50, led by results:

| EC50 | Structure (SMILES) |
| --- | --- |
| 0.292 µM | CN(C)CC[C@@H](NC(=O)c1nc2cc3c(nc2s1)CC[C@H](C(C)(C)C)C3)c1cccc(C(=O)N2CC3(CNC3)C2)c1 (racemic) [Example 91, rac-(7S)-7-tert-butyl-N-[rac-(1R)-1-[3-(2,6-diazaspiro[3.3]heptane-2-carbonyl)phenyl]-3-(dimethylamino)propyl]-5,6,7,8-tetrahydrothiazolo [5,4-b]quinoline-2-carboxamide] |
| 0.277 µM | CC(C)(C)[C@H]1CCc2nc3sc(C(=O)N[C@H](CCN4CCC(O)CC4)c4ccc(N5CC(=O)NC5=O)nc4)nc3cc2C1 [Example 220, (S)-7-(tert-butyl)-N-((R)-1-(6-(2,4-dioxoimidazolidin-1-yl)pyridin-3-yl)-3-(4-hydroxypiperidin-1-yl)propyl)-5,6,7,8-tetrahydrothiazolo[5,4-b]quinoline-2-carboxamide] |
| 0.258 µM | CN1CCC(NC(=O)c2cccc([C@@H](CCN3CCC(O)CC3)NC(=O)c3nc4cc5c(nc4s3)CC[C@H](C(C)(C)C)C5)c2)CC1 (racemic) [Example 141, rac-(7S)-7-tert-butyl-N-[rac-(1R)-3-(4-hydroxy-1-piperidy1)-1-[3-[(1-methyl-4-piperidyl)carbamoyl]phenyl]propyl]-5,6,7,8-tetrahydrothiazolo[5,4-b]quinoline-2-carboxamide] |
| 0.225 µM | CN1CCCC(NC(=O)c2cccc([C@@H](CCN3CCC(O)CC3)NC(=O)c3nc4cc5c(nc4s3)CC[C@H](C(C)(C)C)C5)c2)C1 (mixture of isomers) [Example 140, rac-(7S)-7-tert-butyl-N-[rac-(1R)-3-(4-hydroxy-1-piperidyl)-1-[3-[(1-methyl-3-piperidyl)carbamoyl]phenyl]propyl]-5,6,7,8-tetrahydrothiazolo[5,4-b]quinoline-2-carboxamide] |
| 0.22 µM | CC(C)(C)[C@H]1CCc2nc3sc(C(=O)N[C@H](CCN4CCC(N)CC4)c4ccc(-c5cnc(O)c(F)c5)cc4)nc3cc2C1 (racemic) [Example 198, [1-[rac-(3R)-3-[4-(5-fluoro-6-hydroxy-3-pyridyl)phenyl]-3-[[rac-(7S)-7-tert-butyl-5,6,7,8-tetrahydrothiazolo[5,4-b]quinoline-2-carbonyl]amino]propyl]-4-piperidyl]ammonium; formate] |
| 0.218 µM | CN(C)CC[C@@H](NC(=O)c1cc2cc3c(nc2s1)CC[C@H](C(C)(C)C)C3)c1ccc(-c2ccc(=O)[nH]c2)cc1 (racemic) [Example 25, dimethyl-[rac-(3R)-3-[4-(6-oxo-1H-pyridin-3-yl)phenyl]-3-[{rac-(6S)-6-tert-butyl-5,6,7,8-tetrahydrothieno[2,3-b]quinoline-2-carbonyl]amino]propyl] ammonium;formate] |
| 0.117 µM | CC(C)(C)[C@H]1CCc2nc3sc(C(=O)N[C@H](CCN4CCC(O)CC4)c4cccc(C(=O)NC5CCNCC5)c4)nc3cc2C1 (racemic) [Example 133, rac-(7S)-7-tert-butyl-N-[rac-(1R)-3-(4-hydroxy-1-piperidyl)-1-[3-(4-piperidylcarbamoyl)phenyl]propyl]-5,6,7,8-tetrahydrothiazolo[5,4-b]quinoline-2-carboxamide] |
